Test results reported in US11725007B2, “Meta tyrosine derivatives as rho-kinase inhibitors” (Chiesi Farmaceutici S.p.A., priority 2017, dated 2023).
pKi: −log10 of the molar value.

Legend:
[1] = biological target: Rho kinase 1 (ROCK1) (Homo sapiens, UniProt Q13464); test: In vitro Rho kinase inhibitory activity assay (ADP-Glo), ROCK1; assay type: biochemical; details: 10 μM ATP, Myelin Basic Protein substrate, 25° C., Ki by Cheng-Prusoff
Experimental: (§1) The effectiveness of compounds of the invention to inhibit Rho kinase activity can be determined in a 10 μl assay containing 40 mM Tris pH7.5, 20 mM MgCl2 0.1 mg/ml BSA, 50 μM DTT and 2.5 μM peptide substrate (Myelin Basic Protein) using an ADP-Glo kit (Promega). Compounds were dissolved in DMSO such that the final concentration of DMSO was 1% in the assay. All reactions/incubations are performed at 25° C. Compound (2 ul) and either Rho kinase 1 or 2 (4 μl) were mixed and incubated for 30 mins. Reactions were initiated by addition of ATP (4 μl) such that the final concentration of ATP in the assay was 10 μM. After a 1 hour incubation 10 μl of ADP-Glo Reagent was added and after a further 45 minute incubation 20 ul of Kinase Detection Buffer was added and the mixture incubated for a further 30 minutes. The luminescent signal was measured on a luminometer. […] Compounds were tested in dose-response format and the inhibition of kinase activity was calculated at each concentration of compound. To determine the IC50 (concentration of compound required to inhibit 50% of the enzyme activity) data were fit to a plot of % inhibition vs Log10 compound concentration using a sigmoidal fit with a variable slope and fixing the maximum to 100% and the minimum to 0%. To determine the Ki values the Cheng-Prusoff equation was utilized (Ki=IC50/(1+[S]/Km)

[2] = biological target: Rho kinase 2 (ROCK2) (Homo sapiens, UniProt O75116); test: In vitro Rho kinase inhibitory activity assay (ADP-Glo), ROCK2; assay type: biochemical; details: 10 μM ATP, Myelin Basic Protein substrate, 25° C., Ki by Cheng-Prusoff
Experimental: as §1

Rho kinase 1 (ROCK1), sequence (Q13464 whole entry): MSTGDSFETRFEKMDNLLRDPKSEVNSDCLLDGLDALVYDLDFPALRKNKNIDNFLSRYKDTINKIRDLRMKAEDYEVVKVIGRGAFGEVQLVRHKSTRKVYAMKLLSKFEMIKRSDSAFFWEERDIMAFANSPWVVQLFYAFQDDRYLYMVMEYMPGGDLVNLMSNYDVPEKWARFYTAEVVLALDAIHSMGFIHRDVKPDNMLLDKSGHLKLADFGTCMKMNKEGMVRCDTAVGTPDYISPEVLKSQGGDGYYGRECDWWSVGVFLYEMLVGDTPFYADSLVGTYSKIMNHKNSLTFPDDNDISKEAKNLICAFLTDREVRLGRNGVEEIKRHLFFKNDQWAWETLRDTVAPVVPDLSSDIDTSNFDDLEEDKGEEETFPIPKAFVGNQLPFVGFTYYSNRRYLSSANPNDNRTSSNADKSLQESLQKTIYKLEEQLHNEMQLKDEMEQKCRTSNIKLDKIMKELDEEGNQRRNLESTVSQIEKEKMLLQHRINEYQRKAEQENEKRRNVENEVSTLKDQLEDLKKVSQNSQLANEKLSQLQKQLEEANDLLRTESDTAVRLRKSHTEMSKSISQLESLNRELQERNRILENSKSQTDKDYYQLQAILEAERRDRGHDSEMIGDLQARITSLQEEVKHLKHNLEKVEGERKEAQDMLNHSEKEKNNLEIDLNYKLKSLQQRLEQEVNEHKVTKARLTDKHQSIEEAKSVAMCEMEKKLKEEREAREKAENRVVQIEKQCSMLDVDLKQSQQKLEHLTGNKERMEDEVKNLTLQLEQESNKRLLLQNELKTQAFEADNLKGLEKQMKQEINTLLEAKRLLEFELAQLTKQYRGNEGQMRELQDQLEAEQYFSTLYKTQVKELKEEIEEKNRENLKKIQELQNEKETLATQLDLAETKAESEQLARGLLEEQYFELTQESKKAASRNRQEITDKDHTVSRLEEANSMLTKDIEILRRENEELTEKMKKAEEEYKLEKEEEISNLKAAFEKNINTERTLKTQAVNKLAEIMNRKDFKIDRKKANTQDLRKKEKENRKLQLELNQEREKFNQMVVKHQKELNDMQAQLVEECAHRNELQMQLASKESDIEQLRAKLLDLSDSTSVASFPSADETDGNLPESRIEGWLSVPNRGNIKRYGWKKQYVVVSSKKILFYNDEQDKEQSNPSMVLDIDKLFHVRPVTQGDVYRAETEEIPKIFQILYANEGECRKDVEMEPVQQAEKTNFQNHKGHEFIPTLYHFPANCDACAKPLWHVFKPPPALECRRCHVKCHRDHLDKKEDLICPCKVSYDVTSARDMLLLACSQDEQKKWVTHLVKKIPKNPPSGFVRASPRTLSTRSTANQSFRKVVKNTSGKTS
Rho kinase 2 (ROCK2), sequence (O75116 whole entry): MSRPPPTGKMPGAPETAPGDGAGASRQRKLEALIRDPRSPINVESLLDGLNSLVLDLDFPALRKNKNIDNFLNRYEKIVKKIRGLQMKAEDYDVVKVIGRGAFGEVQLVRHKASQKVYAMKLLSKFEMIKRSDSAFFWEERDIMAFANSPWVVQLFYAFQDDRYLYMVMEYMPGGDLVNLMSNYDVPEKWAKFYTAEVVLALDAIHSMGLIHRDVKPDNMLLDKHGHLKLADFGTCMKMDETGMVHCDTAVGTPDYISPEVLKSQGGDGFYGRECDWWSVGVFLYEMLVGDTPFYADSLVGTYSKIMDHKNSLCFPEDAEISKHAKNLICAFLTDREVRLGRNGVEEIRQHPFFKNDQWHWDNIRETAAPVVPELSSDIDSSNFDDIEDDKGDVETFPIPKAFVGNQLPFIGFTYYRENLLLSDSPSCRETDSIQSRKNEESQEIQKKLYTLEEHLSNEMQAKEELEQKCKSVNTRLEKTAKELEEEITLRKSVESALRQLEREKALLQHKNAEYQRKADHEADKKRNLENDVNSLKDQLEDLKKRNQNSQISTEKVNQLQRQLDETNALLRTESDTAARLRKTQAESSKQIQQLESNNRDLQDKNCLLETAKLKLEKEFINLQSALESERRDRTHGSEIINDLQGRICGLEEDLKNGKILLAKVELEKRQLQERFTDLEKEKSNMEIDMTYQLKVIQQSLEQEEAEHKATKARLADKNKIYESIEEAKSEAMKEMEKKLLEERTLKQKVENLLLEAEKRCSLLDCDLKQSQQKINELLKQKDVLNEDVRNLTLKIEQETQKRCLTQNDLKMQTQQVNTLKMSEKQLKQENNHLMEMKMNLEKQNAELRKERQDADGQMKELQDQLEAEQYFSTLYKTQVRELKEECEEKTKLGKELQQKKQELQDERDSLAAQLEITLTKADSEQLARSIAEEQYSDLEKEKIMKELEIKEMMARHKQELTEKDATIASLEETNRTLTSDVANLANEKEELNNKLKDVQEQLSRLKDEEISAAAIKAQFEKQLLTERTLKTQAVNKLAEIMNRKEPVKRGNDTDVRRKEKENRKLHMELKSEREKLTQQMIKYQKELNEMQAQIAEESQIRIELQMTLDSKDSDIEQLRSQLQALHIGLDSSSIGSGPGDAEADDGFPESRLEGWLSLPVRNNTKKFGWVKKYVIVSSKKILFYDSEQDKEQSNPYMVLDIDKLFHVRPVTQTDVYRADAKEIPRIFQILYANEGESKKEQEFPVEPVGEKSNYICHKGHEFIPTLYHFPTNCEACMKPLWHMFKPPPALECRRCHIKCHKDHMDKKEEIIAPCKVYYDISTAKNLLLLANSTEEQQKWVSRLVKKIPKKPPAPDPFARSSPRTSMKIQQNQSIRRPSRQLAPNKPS

pKi [1]	pKi [2]	Compound
7.30 to 8.30	7.30 to 8.30	COCCCNC(=O)CC(N)c1cccc(Oc2ccnc3[nH]cc(C)c23)c1 (centres unmarked) [Example 6, 3-amino-N-(3-methoxypropyl)-3-(3-((3-methyl-1H-pyrrolo[2,3-b]pyridin-4-yl)oxy)phenyl)propanamide]
7.30 to 8.30	7.30 to 8.30	COCCCNC(=O)CC(CN)c1cccc(Oc2ccnc3[nH]cc(C)c23)c1 (centres unmarked) [Example 14, 4-amino-N-(3-methoxypropyl)-3-(3-((3-methyl-1H-pyrrolo[2,3-b]pyridin-4-yl)oxy)phenyl)butanamide]
< 7.30	< 7.30	Cc1c[nH]c2nccc(Oc3cccc(C(N)CC(=O)NCCCN(C)C)c3)c12 (centres unmarked) [Example 8, 3-amino-N-(3-(dimethylamino)propyl)-3-(3-((3-methyl-1H-pyrrolo[2,3-b]pyridin-4-yl)oxy)phenyl)propanamide]
7.30 to 8.30	7.30 to 8.30	Cc1c[nH]c2nccc(Oc3cccc(C(N)CC(=O)NCCc4ccncc4)c3)c12 (centres unmarked) [Example 7, 3-amino-3-(3-((3-methyl-1H-pyrrolo[2,3-b]pyridin-4-yl)oxy)phenyl)-N-(2-(pyridin-4-yl)ethyl)propanamide]
< 7.30	< 7.30	Cc1c[nH]c2nccc(Oc3cccc(C(CN)CC(=O)NCCCN(C)C)c3)c12 (centres unmarked) [Example 15, 4-amino-N-(3-(dimethylamino)propyl)-3-(3-((3-methyl-1H-pyrrolo[2,3-b]pyridin-4-yl)oxy)phenyl)butanamide]
< 7.30	< 7.30	Cc1c[nH]c2nccc(Oc3cccc(CC(N)C(=O)NCCCN(C)C)c3)c12 (centres unmarked) [Example 3, 2-amino-N-(3-(dimethylamino)propyl)-3-(3-((3-methyl-1H-pyrrolo[2,3-b]pyridin-4-yl)oxy)phenyl)propanamide]
< 7.30	< 7.30	Cc1c[nH]c2nccc(Oc3cccc(CC(CN)C(=O)NCCCN(C)C)c3)c12 (centres unmarked) [Example 12, 3-amino-N-(3-(dimethylamino)propyl)-2-(3-((3-methyl-1H-pyrrolo[2,3-b]pyridin-4-yl)oxy)benzyl)propanamide]

Second part, the compound before the results:

Compound	pKi [1]	pKi [2]
Cc1c[nH]c2nccc(Oc3cccc(C(CN)CC(=O)NCCc4ccncc4)c3)c12 (centres unmarked) [Example 13, 4-Amino-3-(3-((3-methyl-1H-pyrrolo[2,3-b]pyridin-4-yl)oxy)phenyl)-N-(2-(pyridin-4-yl)ethyl)butanamide]	7.30 to 8.30	7.30 to 8.30
Cc1c[nH]c2nccc(Oc3cccc(C(CN)CC(=O)N4CCN(C)CC4)c3)c12 (centres unmarked) [Example 16, 4-amino-3-(3-((3-methyl-1H-pyrrolo[2,3-b]pyridin-4-yl)oxy)phenyl)-1-(4-methylpiperazin-1-yl)butan-1-one]	7.30 to 8.30	7.30 to 8.30
Cc1c[nH]c2nccc(Oc3cccc(CC(CN)C(=O)NCCc4ccncc4)c3)c12 (centres unmarked) [Example 11, 3-amino-2-(3-((3-methyl-1H-pyrrolo[2,3-b]pyridin-4-yl)oxy)benzyl)-N-(2-(pyridin-4-yl)ethyl)propanamide]	7.30 to 8.30	7.30 to 8.30
COCCCNC(=O)C(CN)Cc1cccc(Oc2ccnc3[nH]cc(C)c23)c1 (centres unmarked) [Example 10, 3-amino-N-(3-methoxypropyl)-2-(3-((3-methyl-1H-pyrrolo[2,3-b]pyridin-4-yl)oxy)benzyl)propanamide]	7.30 to 8.30	7.30 to 8.30
Cc1c[nH]c2nccc(Oc3cccc(CC(N)C(=O)NCCc4ccncc4)c3)c12 (centres unmarked) [Example 4, 2-amino-3-(3-((3-methyl-1H-pyrrolo[2,3-b]pyridin-4-yl)oxy)phenyl)-N-(2-(pyridin-4-yl)ethyl)propanamide]	> 8.30	> 8.30
Cc1c[nH]c2nccc(Oc3cccc(CC(CN)C(=O)N4CCN(C)CC4)c3)c12 (centres unmarked) [Example 9, 3-amino-2-(3-((3-methyl-1H-pyrrolo[2,3-b]pyridin-4-yl)oxy)benzyl)-1-(4-methylpiperazin-1-yl)propan-1-one]	< 7.30	< 7.30
Cc1c[nH]c2nccc(Oc3cccc(CC(N)C(=O)N4CCN(C)CC4)c3)c12 (centres unmarked) [Example 1, 2-Amino-3-(3-((3-methyl-1H-pyrrolo[2,3-b]pyridin-4-yl)oxy)phenyl)-1-(4-methylpiperazin-1-yl)propan-1-one]	7.30 to 8.30	7.30 to 8.30
Cc1c[nH]c2nccc(Oc3cccc(C(N)CC(=O)N4CCN(C)CC4)c3)c12 (centres unmarked) [Example 5, 3-amino-3-(3-((3-methyl-1H-pyrrolo[2,3-b]pyridin-4-yl)oxy)phenyl)-1-(4-methylpiperazin-1-yl)propan-1-one]	7.30 to 8.30	7.30 to 8.30
COCCCNC(=O)C(N)Cc1cccc(Oc2ccnc3[nH]cc(C)c23)c1 (centres unmarked) [Example 2, 2-amino-N-(3-methoxypropyl)-3-(3-((3-methyl-1H-pyrrolo[2,3-b]pyridin-4-yl)oxy)phenyl)propanamide]	7.30 to 8.30	7.30 to 8.30
